{"source": "patent US20070128217A1", "about": "(priority 2003, published 2007)", "key": {"[1]": {"system": "control sera (pooled serum of ten healthy LUMC hospital workers; commercial negative donor pooled serum from the Dutch bloodbank)", "type": "binding, human", "design": "Binding of Control serum LUMC to linear peptides / Binding of Control serum Blood-bank to linear peptides / Binding of Control serum LUMC to looped peptides / Binding of Control Serum Blood-Bank to Looped peptides / Binding of Control serum LUMC to linear peptides of the protein M of SARS-CoV Urbani / Binding of Control serum Blood-bank to linear peptides of the protein M of SARS-CoV Urbani / Binding of Control serum LUMC to looped peptides of the protein M of SARS-CoV Urbani / Binding of Control Serum Blood-Bank to Looped peptides of the protein M of SARS-CoV Urbani: unit not given here"}, "[2]": {"system": "recombinant human anti-SARS-CoV antibody 03-018", "type": "binding", "design": "Binding of antibody 03-018 to linear peptides of the N protein of SARS-CoV Urbani / Binding of antibody 03-018 to looped/cyclic peptides of the N protein of SARS-CoV Urbani: unit not given here"}, "[3]": {"system": "rabbit serum obtained by immunizing a rabbit with the SARS-CoV strain Frankfurt 1", "type": "binding", "design": "Binding of a rabbit serum to linear peptides / Binding of a rabbit serum to looped peptides / Rabbit serum linear peptides / Rabbit serum looped peptides / Binding of a rabbit serum to linear peptides of protein N of SARS-CoV Urbani (Rabbit serum linear peptides) / Binding of a rabbit serum to looped/cyclic peptides of protein N of SARS-CoV Urbani (Rabbit serum looped peptides): unit not given here"}, "[4]": {"system": "antibodies in sera from SARS patients (sera 1a, 1b, 2, 6, 37, 62, London, SARS-yellow, SARS-green)", "type": "binding, human", "design": "Binding of serum 6 to linear peptides of protein X1 of SARS-CoV Urbani / Binding of serum 37 to linear peptides of protein X1 of SARS-CoV Urbani / Binding of serum 6 to looped/cyclic peptide (PEPSCAN-ELISA) / Binding of serum 37 to looped/cyclic peptide (PEPSCAN-ELISA) / Binding of serum 37 to looped/cyclic peptides of protein X1 of SARS-CoV Urbani / Binding of serum 6 to linear peptides of protein X2 / Binding of serum 37 to linear peptides of protein X2 / Binding of serum 37 to looped/cyclic peptides of protein X2 of SARS-CoV Urbani / Binding of serum 6 to linear peptides of protein M of SARS-CoV Urbani / Binding of serum 37 to linear peptides of protein M of SARS-CoV Urbani / Binding of serum 6 to looped/cyclic peptides of protein M of SARS-CoV Urbani / Binding of serum 37 to looped/cyclic peptides of protein M of SARS-CoV Urbani / Binding of serum 6 to linear peptides of protein X3 of SARS-CoV Urbani / Binding of serum 37 to linear peptides of protein X3 of SARS-CoV Urbani / Binding of serum 37 to looped/cyclic peptides of protein X3 of SARS-CoV Urbani / Binding of serum 6 to linear peptides of protein X4 of SARS-CoV Urbani / Binding of serum 37 to linear peptides of protein X4 of SARS-CoV Urbani / Binding of serum 37 to looped/cyclic peptides of protein X4 of SARS-CoV Urbani / Binding of serum 6 to linear peptides of protein X5 of SARS-CoV Urbani / Binding of serum 37 to linear peptides of protein X5 of SARS-CoV Urbani / Binding of serum 37 to looped/cyclic peptides of protein X5 of SARS-CoV Urbani / Binding of serum 6 to linear peptides of protein N of SARS-CoV Urbani / Binding of serum 37 to linear peptides of protein N of SARS-CoV Urbani / Binding of serum 6 to linear peptide (PEPSCAN-ELISA) / Binding of serum 1a to looped/cyclic peptides of protein N of SARS-CoV Urbani / Binding of serum 1b to looped/cyclic peptides of protein N of SARS-CoV Urbani / Binding of serum 2 to looped/cyclic peptides of protein N of SARS-CoV Urbani / Binding of serum 6 to looped/cyclic peptides of protein N of SARS-CoV Urbani / Binding of serum 37 to looped/cyclic peptides of protein N of SARS-CoV Urbani / Binding of serum 62 to looped/cyclic peptides of protein N of SARS-CoV Urbani / Binding of serum London to looped/cyclic peptides of protein N of SARS-CoV Urbani / Binding of serum SARS-green to looped/cyclic peptides of protein N of SARS-CoV Urbani: unit not given here"}}, "data": [{"sequence": "VPINTNSGPDDQIGY", "values": [{"measurement": "Binding of Control Serum Blood-Bank to Looped peptides", "setting": "[1]", "value": 0.8}, {"measurement": "Binding of Control serum Blood-bank to linear peptides", "setting": "[1]", "value": 0.7}, {"measurement": "Binding of Control serum LUMC to linear peptides", "setting": "[1]", "value": 0.8}, {"measurement": "Binding of Control serum LUMC to looped peptides", "setting": "[1]", "value": 0.7}, {"measurement": "Binding of antibody 03-018 to linear peptides of the N protein of SARS-CoV Urbani", "setting": "[2]", "value": 0.1}, {"measurement": "Binding of antibody 03-018 to looped/cyclic peptides of the N protein of SARS-CoV Urbani", "setting": "[2]", "value": 0.2}, {"measurement": "Binding of a rabbit serum to linear peptides of protein N of SARS-CoV Urbani (Rabbit serum linear peptides)", "setting": "[3]", "value": 0.1}, {"measurement": "Binding of a rabbit serum to looped/cyclic peptides of protein N of SARS-CoV Urbani (Rabbit serum looped peptides)", "setting": "[3]", "value": 0.3}, {"measurement": "Binding of serum 1a to linear peptides of protein N of SARS-CoV Urbani", "setting": "[4]", "value": 0.3}, {"measurement": "Binding of serum 1a to looped/cyclic peptides of protein N of SARS-CoV Urbani", "setting": "[4]", "value": 0.5}, {"measurement": "Binding of serum 1b to linear peptides of protein N of SARS-CoV Urbani", "setting": "[4]", "value": 0.2}, {"measurement": "Binding of serum 1b to looped/cyclic peptides of protein N of SARS-CoV Urbani", "setting": "[4]", "value": 0.4}, {"measurement": "Binding of serum 2 to linear peptides of protein N of SARS-CoV Urbani", "setting": "[4]", "value": 0.2}, {"measurement": "Binding of serum 2 to looped/cyclic peptides of protein N of SARS-CoV Urbani", "setting": "[4]", "value": 0.4}, {"measurement": "Binding of serum 6 to linear peptides of protein N of SARS-CoV Urbani", "setting": "[4]", "value": 0.2}, {"measurement": "Binding of serum 6 to looped/cyclic peptides of protein N of SARS-CoV Urbani", "setting": "[4]", "value": 0.2}, {"measurement": "Binding of serum 37 to linear peptides of protein N of SARS-CoV Urbani", "setting": "[4]", "value": 0.8}, {"measurement": "Binding of serum 37 to looped/cyclic peptides of protein N of SARS-CoV Urbani", "setting": "[4]", "value": 0.9}, {"measurement": "Binding of serum 62 to linear peptides of protein N of SARS-CoV Urbani", "setting": "[4]", "value": 0.7}, {"measurement": "Binding of serum 62 to looped/cyclic peptides of protein N of SARS-CoV Urbani", "setting": "[4]", "value": 0.7}, {"measurement": "Binding of serum London to linear peptides of protein N of SARS-CoV Urbani", "setting": "[4]", "value": 0.4}, {"measurement": "Binding of serum London to looped/cyclic peptides of protein N of SARS-CoV Urbani", "setting": "[4]", "value": 0.5}, {"measurement": "Binding of serum SARS-green to linear peptides of protein N of SARS-CoV Urbani", "setting": "[4]", "value": 0.4}, {"measurement": "Binding of serum SARS-green to looped/cyclic peptides of protein N of SARS-CoV Urbani", "setting": "[4]", "value": 1.1}, {"measurement": "Binding of serum SARS-yellow to linear peptides of protein N of SARS-CoV Urbani", "setting": "[4]", "value": 0.5}, {"measurement": "Binding of serum SARS-yellow to looped/cyclic peptides of protein N of SARS-CoV Urbani", "setting": "[4]", "value": 0.7}]}, {"sequence": "VSGKGQQQQGQTVTK", "values": [{"measurement": "Binding of Control Serum Blood-Bank to Looped peptides", "setting": "[1]", "value": 0.7}, {"measurement": "Binding of Control serum Blood-bank to linear peptides", "setting": "[1]", "value": 1.0}, {"measurement": "Binding of Control serum LUMC to linear peptides", "setting": "[1]", "value": 1.4}, {"measurement": "Binding of Control serum LUMC to looped peptides", "setting": "[1]", "value": 0.9}, {"measurement": "Binding of antibody 03-018 to linear peptides of the N protein of SARS-CoV Urbani", "setting": "[2]", "value": 0.1}, {"measurement": "Binding of antibody 03-018 to looped/cyclic peptides of the N protein of SARS-CoV Urbani", "setting": "[2]", "value": 0.3}, {"measurement": "Binding of a rabbit serum to linear peptides of protein N of SARS-CoV Urbani (Rabbit serum linear peptides)", "setting": "[3]", "value": 0.2}, {"measurement": "Binding of a rabbit serum to looped/cyclic peptides of protein N of SARS-CoV Urbani (Rabbit serum looped peptides)", "setting": "[3]", "value": 0.4}, {"measurement": "Binding of serum 1a to linear peptide (PEPSCAN-ELISA)", "setting": "[4]", "value": 1.2}, {"measurement": "Binding of serum 1a to looped/cyclic peptides of protein N of SARS-CoV Urbani", "setting": "[4]", "value": 0.9}, {"measurement": "Binding of serum 1b to linear peptide (PEPSCAN-ELISA)", "setting": "[4]", "value": 0.6}, {"measurement": "Binding of serum 1b to looped/cyclic peptides of protein N of SARS-CoV Urbani", "setting": "[4]", "value": 0.3}, {"measurement": "Binding of serum 2 to linear peptide (PEPSCAN-ELISA)", "setting": "[4]", "value": 0.6}, {"measurement": "Binding of serum 2 to looped/cyclic peptides of protein N of SARS-CoV Urbani", "setting": "[4]", "value": 0.5}, {"measurement": "Binding of serum 6 to linear peptide (PEPSCAN-ELISA)", "setting": "[4]", "value": 0.4}, {"measurement": "Binding of serum 6 to looped/cyclic peptides of protein N of SARS-CoV Urbani", "setting": "[4]", "value": 0.3}, {"measurement": "Binding of serum 37 to linear peptide (PEPSCAN-ELISA)", "setting": "[4]", "value": 0.9}, {"measurement": "Binding of serum 37 to looped/cyclic peptides of protein N of SARS-CoV Urbani", "setting": "[4]", "value": 0.5}, {"measurement": "Binding of serum 62 to linear peptide (PEPSCAN-ELISA)", "setting": "[4]", "value": 1.2}, {"measurement": "Binding of serum 62 to looped/cyclic peptides of protein N of SARS-CoV Urbani", "setting": "[4]", "value": 0.5}, {"measurement": "Binding of serum London to linear peptide (PEPSCAN-ELISA)", "setting": "[4]", "value": 0.6}, {"measurement": "Binding of serum London to looped/cyclic peptides of protein N of SARS-CoV Urbani", "setting": "[4]", "value": 0.5}, {"measurement": "Binding of serum SARS-green to linear peptide (PEPSCAN-ELISA)", "setting": "[4]", "value": 0.5}, {"measurement": "Binding of serum SARS-green to looped/cyclic peptides of protein N of SARS-CoV Urbani", "setting": "[4]", "value": 0.5}, {"measurement": "Binding of serum SARS-yellow to linear peptide (PEPSCAN-ELISA)", "setting": "[4]", "value": 1.0}, {"measurement": "Binding of serum SARS-yellow to looped/cyclic peptides of protein N of SARS-CoV Urbani", "setting": "[4]", "value": 0.6}]}]}
